From ChEMBL document CHEMBL4002572, “Development of CXCR4 modulators by virtual HTS of a novel amide-sulfamide compound library” (Eur J Med Chem, 2017)
The source made the active and inactive calls. The rule behind the calls is not given here.

Legend:
[1] = biological target: C-X-C chemokine receptor type 4 (Homo sapiens) (UniProt P61073); assay: Inhibition of CXCR4/CXCL12 interaction-mediated chemotaxis in human MDA-MB-231 cells assessed as inhibition of cell invasion at 100 nM after 22 hrs by hematoxylin/eosin dye-based matrigel assay relative to control
[2] = biological target: C-X-C chemokine receptor type 4 (Homo sapiens) (UniProt P61073); assay: Displacement of biotinylated-TN14003 from CXCR4 in human MDA-MB-231 cells assessed as reduction in fluorescence preincubated for 10 mins followed by biotinylated-TN14003 addition measured after 30 mins by streptavidin-rhodamine staining based microscopic analysis; assay type: cell-based
[3] = biological target: C-X-C chemokine receptor type 4 (Homo sapiens) (UniProt P61073); assay: Potency index, ratio of AMD3100 EC to compound EC for displacement of biotinylated TN14003 from CXCR4 in human MDA-MB-231 cells; assay type: cell-based
Mus musculus [4] = assay: Anti-inflammatory activity in mouse assessed as inhibition of xylene-induced ear edema at 10 mg/kg, ip administered 30 mins post xylene challenge measured after 2 hrs relative to control; assay type: functional
Mus musculus [5] = assay: Anti-inflammatory activity in Swiss albino mouse assessed as inhibition of xylene-induced ear edema at 30 mg/kg, ip pretreated for 1 hr followed by xylene challenge measured after 30 mins relative to control; assay type: functional
Mus musculus [6] = assay: Anti-inflammatory activity in xylene-induced ear edema mouse model assessed as reduction in ear thickness at 10 mg/kg, ip administered 30 mins post xylene challenge measured after 2 hrs by hematoxylin/eosin dye-based assay; assay type: functional, organism-based
Mus musculus [7] = assay: Anti-inflammatory activity in xylene-induced ear edema mouse model assessed as reduction in edema volume at 10 mg/kg, ip administered 30 mins post xylene challenge measured after 2 hrs by hematoxylin/eosin dye-based assay; assay type: functional, organism-based
Mus musculus [8] = assay: Anti-inflammatory activity in xylene-induced ear edema mouse model assessed as reduction in inflammatory cells at 10 mg/kg, ip administered 30 mins post xylene challenge measured after 2 hrs by hematoxylin/eosin dye-based assay; assay type: functional, organism-based
[9] = biological target: C-X-C chemokine receptor type 4 (Mus musculus) (UniProt P70658); assay: Inhibition of CXCR4 in mouse J774A.1 cells assessed as reduction in Crohn's disease-associated Escherichia coli 131 infection-induced TNF-alpha level at 200 nM relative to control; assay type: cell-based
[10] = biological target: C-X-C chemokine receptor type 4 (Homo sapiens) (UniProt P61073); assay: Inhibition of CXCR4/CXCL12 (unknown origin) interaction-mediated Akt phosphorylation by western blot analysis
MDA-MB-231 = assay: Cytotoxicity against human MDA-MB-231 cells assessed as cell viability at 10 uM measured after 24 hrs by MTT assay; assay type: cell-based; settings: mda-mb-231, 24 h

Chain of C-X-C chemokine receptor type 4 (Homo sapiens) (P61073 whole entry): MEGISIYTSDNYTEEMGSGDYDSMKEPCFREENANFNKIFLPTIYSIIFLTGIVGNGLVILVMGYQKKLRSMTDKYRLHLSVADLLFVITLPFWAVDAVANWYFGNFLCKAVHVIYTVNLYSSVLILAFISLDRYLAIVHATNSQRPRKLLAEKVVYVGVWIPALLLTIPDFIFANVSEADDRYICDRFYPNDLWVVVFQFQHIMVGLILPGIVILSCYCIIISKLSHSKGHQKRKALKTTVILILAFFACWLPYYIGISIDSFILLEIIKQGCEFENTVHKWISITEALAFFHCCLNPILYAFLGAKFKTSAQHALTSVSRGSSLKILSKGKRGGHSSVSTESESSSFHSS
Chain of C-X-C chemokine receptor type 4 (Mus musculus) (P70658 whole entry): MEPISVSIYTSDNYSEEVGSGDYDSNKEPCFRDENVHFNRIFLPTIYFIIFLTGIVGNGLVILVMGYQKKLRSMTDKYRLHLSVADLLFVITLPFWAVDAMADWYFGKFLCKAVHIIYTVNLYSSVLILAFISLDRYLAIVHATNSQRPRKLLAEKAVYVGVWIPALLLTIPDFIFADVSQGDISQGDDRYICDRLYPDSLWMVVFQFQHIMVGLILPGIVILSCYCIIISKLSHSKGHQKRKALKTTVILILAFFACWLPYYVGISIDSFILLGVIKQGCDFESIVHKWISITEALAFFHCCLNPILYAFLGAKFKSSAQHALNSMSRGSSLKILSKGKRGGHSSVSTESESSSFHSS

EC [2] [nM]	Compound	inhibition [1]	inhibition in vivo at 10 mg/kg (Mus musculus [4]) [%]	other results
1	O=C(NCc1ccc(CNS(=O)(=O)c2ccc3c(c2)CCO3)cc1)c1cc2ccccn2n1	40%	–	Ratio [3]: 1000
100	O=C(NCc1ccc(CNS(=O)(=O)c2ccccc2F)cc1)c1cc2ccccn2n1	40%	–	–
1000	O=C(NCc1ccc(CNS(=O)(=O)c2ccc3c(c2)CCO3)cc1)c1cccnc1	60%	10	–
10	O=C(NCc1ccc(CNS(=O)(=O)c2ccc3c(c2)CCO3)cc1)c1scc2c1OCCO2	68%	0	–
–	c1cc(CN2CCCNCCNCCCNCC2)ccc1CN1CCCNCCNCCCNCC1	55%	–	–
> 1000	O=C(NCc1ccc(CNS(=O)(=O)c2ccc(F)cc2F)cc1)c1ncc[nH]1	–	–	–
1000	Cc1cc(C(=O)NCc2ccc(CNS(=O)(=O)c3ccc4c(c3)CCO4)cc2)n(C)n1	Active	35	–
1000	O=C(NCc1ccc(CNS(=O)(=O)c2cccc(F)c2)cc1)c1cc2ccccn2n1	40%	–	–
1000	O=C(NCc1ccc(CNS(=O)(=O)c2ccc3c(c2)CCO3)cc1)c1cccc2c1COC2	40%	–	–
–	Cc1ccc(-c2cc(C(F)(F)F)nn2-c2ccc(S(N)(=O)=O)cc2)cc1 [CELECOXIB]	–	–	inhibition in vivo at 30 mg/kg (Mus musculus [5]): 47%
1000	Cn1nccc1C(=O)NCc1ccc(CNS(=O)(=O)c2ccc3c(c2)CCO3)cc1	40%	38	–
> 1000	O=C(NCc1ccc(CNS(=O)(=O)c2ccc(F)c(F)c2)cc1)c1cnc2ccccn12	–	–	–
10	Cc1nnsc1C(=O)NCc1ccc(CNS(=O)(=O)c2ccc(F)c(F)c2)cc1	40%	54	Activity (Mus musculus [6]): Active; Activity (Mus musculus [7]): Active; Activity (Mus musculus [8]): Active
1	O=C(NCc1ccc(CNS(=O)(=O)c2ccc(F)cc2F)cc1)c1cncnc1	74%	56	inhibition [9]: 67%; inhibition [10]: Dose-dependent effect; Activity (Mus musculus [6]): Active; Activity (Mus musculus [7]): Active; Activity (MDA-MB-231): Non-Toxic; Ratio [3]: 1000; Activity (Mus musculus [8]): Active
